This is an account of results in patent US10988477B2 (Merck Patent GmbH, priority 2018, dated 2021).

Assay [1] addresses intracellular GCN2 (phosphorylation of the GCN2 substrate eIF2α) (Homo sapiens, UniProt Q9P2K8). Description: GCN2 cellular inhibition assay (AlphaScreen SureFire P-eIF2α Ser51, borrelidin-treated U2OS cells). The assay is classed as cell-based. The conditions noted are these: biomarker assay, phosphorylated eIF2α Ser51 in borrelidin-treated U2OS cells. An outline of the steps:
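U2OS cells adhered overnight, then treated with compounds (4-fold serial dilutions from 40 μM final) plus borrelidin 10 μM final for 1 h at 37 °C. Lysate eIF2α Ser51 phosphorylation measured by AlphaScreen SureFire. Percent inhibition calculated relative to borrelidin-only wells.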

Another assay has as its target GCN2 kinase (Homo sapiens, UniProt Q9P2K8). Description: GCN2 enzyme inhibition assay (Transcreener ADP2 fluorescence polarization). The note with it: 280 μM ATP. Type of assay: biochemical. In short, it runs like this:
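Kinase activity is followed as ADP formation, measured by fluorescence polarization, using 4 nM enzyme with 280 μM ATP and 200 μM (RS)7 peptide at pH 7.5 and 25 °C for 1 h. Values come from a non-linear tight-binding fit.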

The mark [2] stands for this setting: compounds of Formula II, 4 nM GCN2 kinase.
[3] abbreviates: Enzyme activity for compounds of Formula IV, Ki(app), 25° C.

Bounds are passed on as bounds.

GCN2 kinase, sequence (Q9P2K8 whole entry): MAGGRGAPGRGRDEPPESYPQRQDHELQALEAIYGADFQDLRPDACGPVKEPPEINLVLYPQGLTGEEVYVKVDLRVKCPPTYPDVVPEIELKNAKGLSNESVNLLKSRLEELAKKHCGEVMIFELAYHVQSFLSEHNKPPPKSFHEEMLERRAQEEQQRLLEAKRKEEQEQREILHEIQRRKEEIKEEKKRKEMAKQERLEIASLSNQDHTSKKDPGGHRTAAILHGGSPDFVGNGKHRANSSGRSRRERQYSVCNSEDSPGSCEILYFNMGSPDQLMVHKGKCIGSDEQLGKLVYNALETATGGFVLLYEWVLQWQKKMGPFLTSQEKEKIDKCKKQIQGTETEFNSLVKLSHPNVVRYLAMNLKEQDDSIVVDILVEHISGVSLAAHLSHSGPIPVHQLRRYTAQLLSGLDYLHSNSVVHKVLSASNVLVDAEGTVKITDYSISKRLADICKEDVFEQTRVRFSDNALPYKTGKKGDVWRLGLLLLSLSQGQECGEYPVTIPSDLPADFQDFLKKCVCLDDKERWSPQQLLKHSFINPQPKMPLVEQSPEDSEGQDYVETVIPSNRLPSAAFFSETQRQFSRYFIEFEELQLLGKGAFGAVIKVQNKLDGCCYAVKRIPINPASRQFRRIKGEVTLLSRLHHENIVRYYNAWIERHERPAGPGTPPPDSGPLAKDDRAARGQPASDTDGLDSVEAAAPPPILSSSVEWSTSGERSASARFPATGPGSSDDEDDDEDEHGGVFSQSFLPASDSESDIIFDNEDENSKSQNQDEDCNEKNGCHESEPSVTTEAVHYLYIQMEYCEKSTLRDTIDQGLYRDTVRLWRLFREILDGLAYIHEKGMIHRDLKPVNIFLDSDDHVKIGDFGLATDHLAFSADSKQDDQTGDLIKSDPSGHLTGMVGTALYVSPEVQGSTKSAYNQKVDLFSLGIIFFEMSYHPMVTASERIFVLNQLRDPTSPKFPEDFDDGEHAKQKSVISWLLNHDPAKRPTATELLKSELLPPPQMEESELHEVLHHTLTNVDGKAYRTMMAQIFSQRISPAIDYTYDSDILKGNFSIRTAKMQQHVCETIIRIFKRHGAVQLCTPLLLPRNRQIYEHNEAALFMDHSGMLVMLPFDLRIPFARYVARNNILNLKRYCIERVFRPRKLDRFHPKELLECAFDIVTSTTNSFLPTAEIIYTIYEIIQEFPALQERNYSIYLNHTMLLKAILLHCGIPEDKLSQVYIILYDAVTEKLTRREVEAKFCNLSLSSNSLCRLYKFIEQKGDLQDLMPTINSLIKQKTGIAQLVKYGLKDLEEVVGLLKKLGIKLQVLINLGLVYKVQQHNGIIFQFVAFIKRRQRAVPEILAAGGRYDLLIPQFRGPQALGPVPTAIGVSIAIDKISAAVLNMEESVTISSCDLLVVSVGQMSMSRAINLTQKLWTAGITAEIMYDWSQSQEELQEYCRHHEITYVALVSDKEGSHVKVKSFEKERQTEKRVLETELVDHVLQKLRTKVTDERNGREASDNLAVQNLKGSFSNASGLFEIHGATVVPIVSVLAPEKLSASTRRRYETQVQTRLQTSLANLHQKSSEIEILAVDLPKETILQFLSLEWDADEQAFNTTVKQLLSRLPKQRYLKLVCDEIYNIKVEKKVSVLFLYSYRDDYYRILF
intracellular GCN2 (phosphorylation of the GCN2 substrate eIF2α), sequence (Q9P2K8 whole entry): as above

As for `CC(=O)Nc1cccc2c1CCN(c1cc(-c3cnc4ccc(C(F)F)nn34)ncn1)C2` [II-218, N-(2-(6-(6-(Difluoromethyl)imidazo[1,2-b]pyridazin-3-yl)pyrimidin-4-yl)-1,2,3,4-tetrahydroisoquinolin-5-yl)acetamide], the IC50 in assay [1] (compounds of Formula II) was 500 to 5000 nM. Besides, at GCN2 kinase (setting [2]), the Ki lay within 10 to 1000 nM.
Consider `FC(F)c1cn2c(-c3nccc(N4CCC(C5COC5)C4)n3)cnc2cn1` (stereo not drawn) [IV-73, 6-(Difluoromethyl)-3-(4-(3-(oxetan-3-yl)pyrrolidin-1-yl)pyrimidin-2-yl)imidazo[1,2-a]pyrazine], for which the IC50 in assay [1] (compounds of Formula IV) is above 5000 nM. On GCN2 kinase (setting [3]), this compound returned a Ki of 100 to 1000 nM.
On to `Cc1n[nH]cc1[C@@H]1C[C@@H](O)CN(c2ccnc(-c3cnc4cnc(C(F)(F)F)cn34)n2)C1` [IV-775, (3R,5S)-5-(3-methyl-1H-pyrazol-4-yl)-1-(2-(6-(trifluoromethyl)imidazo[1,2-a]pyrazin-3-yl)pyrimidin-4-yl)piperidin-3-ol], for which the IC50 was above 5000 nM in assay [1] (compounds of Formula IV) and 10 to 1000 nM against GCN2 kinase (compounds of Formula IV, 4 nM GCN2 kinase).
Consider `CS(=O)(=O)NCC1CN(c2cc(-c3cnc4ccc(C(F)F)nn34)ncn2)c2ccccc21` (stereo not drawn) [II-11, N-((1-(6-(6-(Difluoromethyl)imidazo[1,2-b]pyridazin-3-yl)pyrimidin-4-yl)indolin-3-yl)methyl)methanesulfonamide], for which, in assay [1] (compounds of Formula II), the IC50 is above 5000 nM. This compound had a Ki at GCN2 kinase (setting [2]) of 10 to 1000 nM.
On to `C[C@@H]1[C@@H](CNS(C)(=O)=O)N(C2CC2)CCN1c1cc(-c2cnc3ccc(C(F)F)nn23)ncn1` [II-770, N-(((2R,3R)-1-cyclopropyl-4-(6-(6-(difluoromethyl)imidazo[1,2-b]pyridazin-3-yl)pyrimidin-4-yl)-3-methylpiperazin-2-yl)methyl)methanesulfonamide], for which the IC50 in assay [1] (compounds of Formula II) lay in the range of 500 to 5000 nM; against GCN2 kinase (setting [2]), 10 to 1000 nM.
Take `OCC1CC(c2cn[nH]c2)CN(c2ccnc(-c3cnc4cnc(C(F)(F)F)cn34)n2)C1` (stereo not drawn) [IV-359, (5-(1H-Pyrazol-4-yl)-1-(2-(6-(trifluoromethyl)imidazo[1,2-a]pyrazin-3-yl)pyrimidin-4-yl)piperidin-3-yl)methanol]: the IC50 in assay [1] (compounds of Formula IV) was below 500 nM. In addition, the Ki at GCN2 kinase (setting [3]) was below 10 nM.
Take `CS(=O)(=O)N1CCCC(c2cc(-c3cnc4ccc(C(F)F)nn34)ncn2)CC1` (single isomer, unassigned) [II-275, 6-(Difluoromethyl)-3-(6-(1-(methylsulfonyl)azepan-4-yl)pyrimidin-4-yl)imidazo[1,2-b]pyridazine]: the IC50 in assay [1] (compounds of Formula II) lay within 500 to 5000 nM. Besides, the Ki on GCN2 kinase (setting [2]) was in the range of 10 to 1000 nM.
Taken in the same sequence, the figures for `CS(=O)(=O)N1CCCC(c2cc(-c3cnc4ccc(C(F)F)nn34)ncn2)C1` (stereo not drawn) [II-21, 6-(Difluoromethyl)-3-(6-(1-(methylsulfonyl)piperidin-3-yl)pyrimidin-4-yl)imidazo[1,2-b]pyridazine] were above 5000 nM and 10 to 1000 nM.
In assay [1] (compounds of Formula IV), `NS(=O)(=O)N[C@H]1CCCN(c2ccnc(-c3cnc4cnc(C(F)F)cn34)n2)C1` [IV-179, 6-(Difluoromethyl)-3-[4-[(3S)-3-(sulfamoylamino)-1-piperidyl]pyrimidin-2-yl]imidazo[1,2-a]pyrazine] came in with an IC50 above 5000 nM. The same compound returned a Ki at GCN2 kinase (setting [3]) of 100 to 1000 nM.
As for `CS(=O)(=O)NCC1CN(c2cc(-c3cnc4ccc(C(F)F)nn34)ncn2)CCN1` (stereo not drawn) [II-450, N-((4-(6-(6-(Difluoromethyl)imidazo[1,2-b]pyridazin-3-yl)pyrimidin-4-yl)piperazin-2-yl)methyl)methanesulfonamide], the IC50 in assay [1] (compounds of Formula II) was in the range of 500 to 5000 nM. On GCN2 kinase (setting [2]), this compound gave a Ki of 10 to 1000 nM.
With `OC[C@@H]1CCCN(c2cc(-c3cnc4ccc(C(F)F)nn34)ncn2)C1` [II-520, (R)-(1-(6-(6-(Difluoromethyl)imidazo[1,2-b]pyridazin-3-yl)pyrimidin-4-yl)piperidin-3-yl)methanol], the half-inhibitory concentration (IC50) in assay [1] (compounds of Formula II) lay in the range of 500 to 5000 nM. In addition, the Ki on GCN2 kinase (setting [2]) is 10 to 1000 nM.
Consider `CC1C(C(N)=O)NCCN1c1cc(-c2cnc3ccc(C(F)F)nn23)ncn1` (stereo not drawn) [II-477, 4-(6-(6-(Difluoromethyl)imidazo[1,2-b]pyridazin-3-yl)pyrimidin-4-yl)-3-methylpiperazine-2-carboxamide], for which the IC50 in assay [1] (compounds of Formula II) lay in the range of 500 to 5000 nM. In addition, the Ki on GCN2 kinase (setting [2]) was 10 to 1000 nM.
With `Cc1ncc(-c2cnc3ccc(C(F)F)nn23)cc1N1CCC12CCN(S(C)(=O)=O)CC2` [II-44, 6-(Difluoromethyl)-3-(6-methyl-5-(7-(methylsulfonyl)-1,7-diazaspiro[3.5]nonan-1-yl)pyridin-3-yl)imidazo[1,2-b]pyridazine], the IC50 in assay [1] (compounds of Formula II) is 500 to 5000 nM. Besides, the Ki at GCN2 kinase (setting [2]) is 10 to 1000 nM.
Taken in the same sequence, the figures for `O=C1NCC2CN(c3cc(-c4cnc5ccc(C(F)F)nn45)ncn3)CCN12` (stereo not drawn) [II-46, 7-(6-(6-(Difluoromethyl)imidazo[1,2-b]pyridazin-3-yl)pyrimidin-4-yl)hexahydroimidazo[1,5-a]pyrazin-3(2H)-one] were above 5000 nM and 10 to 1000 nM.
For the compound `CC1CN(c2cc(OCCO)nc(-c3cnc4cnc(C(F)(F)F)cn34)n2)C(C)C(c2cn[nH]c2)N1` (stereo not drawn) [IV-640, 2-((6-(2,5-Dimethyl-3-(1H-pyrazol-4-yl)piperazin-1-yl)-2-(6-(trifluoromethyl)imidazo[1,2-a]pyrazin-3-yl)pyrimidin-4-yl)oxy)ethan-1-ol], the IC50 in assay [1] (compounds of Formula IV) is 500 to 5000 nM. Further, the Ki on GCN2 kinase (setting [3]) is below 10 nM.
In assay [1] (compounds of Formula II), `CC1C(CNS(C)(=O)=O)C(F)(F)CCN1c1cc(-c2cnc3ccc(C(F)F)nn23)ncn1` (single isomer, unassigned) [II-303, N-((1-(6-(6-(Difluoromethyl)imidazo[1,2-b]pyridazin-3-yl)pyrimidin-4-yl)-4,4-difluoro-2-methylpiperidin-3-yl)methyl)methanesulfonamide] returned an IC50 of 500 to 5000 nM. This compound showed a Ki at GCN2 kinase (setting [2]) of 10 to 1000 nM.
Taken in the same sequence, the figures for `CS(=O)(=O)C1CCCN(c2cc(-c3cnc4ccc(C(F)(F)F)nn34)ccn2)C1` (stereo not drawn) [II-228, 3-(2-(3-(Methylsulfonyl)piperidin-1-yl)pyridin-4-yl)-6-(trifluoromethyl)imidazo[1,2-b]pyridazine] were above 5000 nM and 10 to 1000 nM.
Taken in the same sequence, the figures for `CS(=O)(=O)NC[C@@H]1CCCN(c2cc(-c3cnc4ccc(C(F)F)nn34)ccn2)C1` [II-155, (R)—N-((1-(4-(6-(Difluoromethyl)imidazo[1,2-b]pyridazin-3-yl)pyridin-2-yl)piperidin-3-yl)methyl)methanesulfonamide] were 500 to 5000 nM and 10 to 1000 nM.
Taken in the same sequence, the figures for `CC1CC(C(=O)O)C(C)N(c2cc(-c3cnc4ccc(C(F)(F)F)nn34)ncn2)C1` (stereo not drawn) [II-721, 2,5-Dimethyl-1-[6-[6-(trifluoromethyl)imidazo[1,2-b]pyridazin-3-yl]pyrimidin-4-yl]piperidine-3-carboxylic acid] were 500 to 5000 nM and 10 to 1000 nM.
Consider `CS(=O)(=O)NC[C@@H]1CN(c2cc(-c3cnc4ccc(C(F)F)nn34)ncn2)CCO1` [II-34, (S)—N-((4-(6-(6-(Difluoromethyl)imidazo[1,2-b]pyridazin-3-yl)pyrimidin-4-yl)morpholin-2-yl)methyl)methanesulfonamide], for which the IC50 in assay [1] (compounds of Formula II) is below 500 nM. This compound also showed a Ki at GCN2 kinase (setting [2]) below 10 nM.
In assay [1] (compounds of Formula IV), `C[C@H]1COCCN1c1ccnc(-c2cnc3cnc(C(F)F)cn23)n1` [IV-81, (S)-4-(2-(6-(Difluoromethyl)imidazo[1,2-a]pyrazin-3-yl)pyrimidin-4-yl)-3-methylmorpholine] showed an IC50 above 5000 nM. On GCN2 kinase (setting [3]), the Ki fell in the range of 100 to 1000 nM.
In the case of `CS(=O)(=O)NCC1CN(c2cc(-c3cnc4ccc(C(F)F)nn34)ncn2)CC2(CC2)O1` (stereo not drawn) [II-375, N-((7-(6-(6-(Difluoromethyl)imidazo[1,2-b]pyridazin-3-yl)pyrimidin-4-yl)-4-oxa-7-azaspiro[2.5]octan-5-yl)methyl)methanesulfonamide], the IC50 in assay [1] (compounds of Formula II) is below 500 nM. The compound also yielded a Ki on GCN2 kinase (setting [2]) below 10 nM.
`CS(=O)(=O)CCC1CCCN(c2cc(-c3cnc4ccc(C(F)F)nn34)ccn2)C1` (stereo not drawn) [II-128, 6-(Difluoromethyl)-3-(2-(3-(2-(methylsulfonyl)ethyl)piperidin-1-yl)pyridin-4-yl)imidazo[1,2-b]pyridazine]: in assay [1] (compounds of Formula II), the IC50 was in the range of 500 to 5000 nM. The compound also showed a Ki at GCN2 kinase (setting [2]) of 10 to 1000 nM.
Taken in the same sequence, the figures for `CC1CC(C(N)=O)C(C)N(c2cc(-c3cnc4ccc(C(F)(F)F)nn34)ncn2)C1` (racemic) [II-720, 2,5-Dimethyl-1-[6-[6-(trifluoromethyl)imidazo[1,2-b]pyridazin-3-yl]pyrimidin-4-yl]piperidine-3-carboxamide] were 500 to 5000 nM and 10 to 1000 nM.
In the case of `CC1C(CNS(C)(=O)=O)N(C2CC2)CCN1c1cc(-c2cnc3ccc(C(F)F)nn23)ncn1` (stereo not drawn) [II-463, N-((1-Cyclopropyl-4-(6-(6-(difluoromethyl)imidazo[1,2-b]pyridazin-3-yl)pyrimidin-4-yl)-3-methylpiperazin-2-yl)methyl)methanesulfonamide], in assay [1] (compounds of Formula II), the IC50 was below 500 nM. This compound also gave a Ki on GCN2 kinase (setting [2]) below 10 nM.
Regarding `FC(F)(F)c1cn2c(-c3nccc(N4CCCC(c5c[nH]c(Cl)n5)C4)n3)cnc2cn1` (stereo not drawn) [IV-409, 3-(4-(3-(2-Chloro-1H-imidazol-4-yl)piperidin-1-yl)pyrimidin-2-yl)-6-(trifluoromethyl)imidazo[1,2-a]pyrazine], the IC50 in assay [1] (compounds of Formula IV) lay within 500 to 5000 nM. In addition, on GCN2 kinase (setting [3]), the Ki is below 10 nM.
In turn, `CS(=O)(=O)N1CC2CCN(c3cc(-c4cnc5ccc(C(F)F)nn45)ncn3)CC21` (stereo not drawn) [II-181, 6-(Difluoromethyl)-3-(6-(8-(methylsulfonyl)-3,8-diazabicyclo[4.2.0]octan-3-yl)pyrimidin-4-yl)imidazo[1,2-b]pyridazine] returned an IC50 in assay [1] (compounds of Formula II) above 5000 nM. The compound also displayed a Ki at GCN2 kinase (setting [2]) above 1000 nM.
